IC50 data for eleven compounds are collected here from patent US20210300936A1, “PYRAZOLOTRIAZOLOPYRIMIDINE DERIVATIVES AS A2A RECEPTOR ANTAGONIST” (BEIGENE, LTD., priority 2018, published 2021).

This assay concerns the target human A2A receptor (A2AR) (Homo sapiens, UniProt P29274). Put plainly: Luciferase reporter assay (HEK293-A2AR-luc2p/CRE/Hygro cells, 3 nM CGS21680). The format is cell-based. The note with it: 3 nM CGS21680, 5 h incubation. The method in brief:
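Antagonist (0.1–10000 nM) and 3 nM CGS21680 were co-added for 5 h to stable HEK293-A2AR-luc2p/CRE cells, 18 h after seeding in 1% FBS medium containing adenosine deaminase. Luminescence was normalized to agonist alone (100%), and IC50 came from the dose–inhibition curve.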

Molecules are shown by their SMILES.

Chain of human A2A receptor (A2AR) (P29274 whole entry): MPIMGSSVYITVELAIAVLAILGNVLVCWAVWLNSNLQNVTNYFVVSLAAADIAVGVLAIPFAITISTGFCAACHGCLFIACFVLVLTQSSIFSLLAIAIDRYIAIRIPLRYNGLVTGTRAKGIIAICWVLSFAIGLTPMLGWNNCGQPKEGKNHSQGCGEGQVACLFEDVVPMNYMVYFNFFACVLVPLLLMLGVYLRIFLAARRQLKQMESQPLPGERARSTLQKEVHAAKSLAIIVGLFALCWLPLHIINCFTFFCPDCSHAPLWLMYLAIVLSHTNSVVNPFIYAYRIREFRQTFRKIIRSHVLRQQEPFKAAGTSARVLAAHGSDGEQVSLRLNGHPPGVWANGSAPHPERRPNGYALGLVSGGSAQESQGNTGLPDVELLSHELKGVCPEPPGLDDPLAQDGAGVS

A word on the IC50: it is the concentration needed to halve the response being measured. Read a low IC50 as inhibition by little substance. As for `COCCOCCOc1ccc(N2CCN(C(=O)C(C3CC3)n3cc4c(nc(N)n5nc(-c6ccco6)nc45)n3)CC2)cc1` (centres unmarked) [Compound C22, 2-(5-amino-2-(furan-2-yl)-8H-pyrazolo[4,3-e][1,2,4]triazolo[1,5-c]pyrimidin-8-yl)-2-cyclopropyl-1-(4-(4-(2-(2-methoxyethoxy)ethoxy)phenyl)piperazin-1-yl)ethan-1-one], half-maximal inhibition (IC50) required 12.8 nM.

In turn, `COC(=O)C1CC2(CCN(C(=O)C(C)(c3ccccc3)n3ncc4c3nc(N)n3nc(-c5ccco5)nc43)CC2)C1` (centres unmarked) [Compound B33, methyl 7-(2-(5-amino-2-(furan-2-yl)-7H-pyrazolo[4,3-e][1,2,4]triazolo[1,5-c]pyrimidin-7-yl)-2-phenylpropanoyl)-7-azaspiro[3.5]nonane-2-carboxylate] registered an IC50 of 16.5 nM.

The compound `COCCOc1ccc(N2CCN(C(=O)C(C)(c3ccccc3)n3cc4c(nc(N)n5nc(-c6ccco6)nc45)n3)CC2)cc1` (single isomer, unassigned) [Compound C25a] came in with an IC50 of 79.8 nM.

Compound `COCCOCCOc1ccc(N2CCN(C(=O)C(C3CC3)n3ncc4c3nc(N)n3nc(-c5ccco5)nc43)CC2)cc1` (centres unmarked) [Compound A21, 2-(5-amino-2-(furan-2-yl)-7H-pyrazolo[4,3-e][1,2,4]triazolo[1,5-c]pyrimidin-7-yl)-2-cyclopropyl-1-(4-(4-(2-(2-methoxyethoxy)ethoxy)phenyl)piperazin-1-yl)ethan-1-one] registered an IC50 of 21.6 nM.

Regarding `COCCOc1ccc(N2CCN(C(=O)C(c3ccccc3)n3ncc4c3nc(N)n3nc(-c5ccco5)nc43)[C@H](C)C2)cc1` (stereo partly drawn) [Compound A50, 2-(5-amino-2-(furan-2-yl)-7H-pyrazolo[4,3-e][1,2,4]triazolo[1,5-c]pyrimidin-7-yl)-1-((R)-4-(4-(2-methoxyethoxy)phenyl)-2-methylpiperazin-1-yl)-2-phenylethan-1-one], the IC50 was 1.5 nM.

For the compound `CN1CCN(CCCOc2ccc(N3CCN(C(=O)[C@](C)(c4ccccc4)n4ncc5c4nc(N)n4nc(-c6ccco6)nc54)CC3)cc2)CC1` [Compound A82a, (S)-2-(5-amino-2-(furan-2-yl)-7H-pyrazolo[4,3-e][1,2,4]triazolo[1,5-c]pyrimidin-7-yl)-1-(4-(4-(3-(4-methylpiperazin-1-yl)propoxy)phenyl)piperazin-1-yl)-2-phenylpropan-1-one], the IC50 stood at 12.2 nM.

The compound `CC(C(=O)N1CCNCC1)(c1ccccc1)n1ncc2c1nc(N)n1nc(-c3ccco3)nc21` (centres unmarked) [Compound B21, 2-(5-amino-2-(furan-2-yl)-7H-pyrazolo[4,3-e][1,2,4]triazolo[1,5-c]pyrimidin-7-yl)-2-phenyl-1-(piperazin-1-yl)propan-1-one] had an IC50 of 96.7 nM.

Take `Nc1nc2c(cnn2C(C(=O)N2CCc3cc(F)ccc3C2)c2ccccc2)c2nc(-c3ccco3)nn12` (centres unmarked) [Compound B7, 2-(5-amino-2-(furan-2-yl)-7H-pyrazolo[4,3-e][1,2,4]triazolo[1,5-c]pyrimidin-7-yl)-1-(6-fluoro-3,4-dihydroisoquinolin-2(1H)-yl)-2-phenylethan-1-one]: the IC50 turned out to be 2 nM.

`CN(C)C(=O)C(c1ccccc1)n1ncc2c1nc(N)n1nc(-c3ccco3)nc21` (centres unmarked) [Compound B1, 2-(5-amino-2-(furan-2-yl)-7H-pyrazolo[4,3-e][1,2,4]triazolo[1,5-c]pyrimidin-7-yl)-N,N-dimethyl-2-phenylacetamide]: the IC50 came out at 15.2 nM.

As to `COCCOc1ccc(N2CCN(C(=O)C(c3ccc(C(F)(F)F)cc3)n3ncc4c3nc(N)n3nc(-c5ccco5)nc43)CC2)cc1` (centres unmarked) [Compound A34, 2-(5-amino-2-(furan-2-yl)-7H-pyrazolo[4,3-e][1,2,4]triazolo[1,5-c]pyrimidin-7-yl)-1-(4-(4-(2-methoxyethoxy)phenyl)piperazin-1-yl)-2-(4-(trifluoromethyl)phenyl)ethan-1-one], the IC50 is 75.7 nM.

In turn, `CCCC(C(=O)N1CCN(c2ccc(OCCN(C)C)cc2)CC1)n1ncc2c1nc(N)n1nc(-c3ccco3)nc21` (single isomer, unassigned) [Compound A39a] gave an IC50 of 127 nM.
